Measurements taken from patent US10570179B2, “Substituted urea depsipeptide analogs as activators of the CLPP endopeptidase” (priority 2016, dated 2020).
Numbered stars: 1 amine (or outer) side, 2 acyl side, 3 side chain; on linkers, the order of the positions; unused ones are H or OH. Bridge positions count the residues as written; N and C are the ends. Square brackets hold non-standard residues; d marks the D form. Peptide text beside a SMILES is read from it. * marks the point of attachment. Piperazine(2S-CO,4-Me) = CN1CCN[C@H](C(=O)O)C1; Phe(3,5-F2) = N[C@@H](Cc1cc(F)cc(F)c1)C(=O)O; NH(1-Me-indolin-5-yl) = CN1CCc2cc(N*)ccc21; X6 = O=C([C@@H]1CS(=O)(=O)CCN1[*:1])[*:2]; Morpholine(3S-CO) = O=C(O)[C@@H]1COCCN1; Phe(3-Me) = Cc1cccc(C[C@H](N)C(=O)O)c1; Pro(4S-Me) = C[C@@H]1CN[C@H](C(=O)O)C1; NH(4-Cl-2-F-phenyl) = Fc1cc(Cl)ccc1N*; Pro(4R-Me) = C[C@H]1CN[C@H](C(=O)O)C1; Propanoyl(3-NMe2) = CN(C)CCC(=O)*; X1 = O=C([C@@H]1CSCCN1[*:1])[*:2]; Hyp = O=C(O)[C@@H]1C[C@@H](O)CN1; NH(4-Me-phenyl) = Cc1ccc(N*)cc1; aThr = C[C@H](O)[C@H](N)C(=O)O; Pip = O=C(O)[C@@H]1CCCCN1; 4Abz = Nc1ccc(C(=O)O)cc1; CO = O=C([*:1])[*:2]; X2 = Fc1cc(N*)ccc1Cl

How the values were obtained:
[1] = Microsomal metabolic stability; assay type: in vitro ADME, human
Description: (§1) Compounds were initially prepared by dissolving them into DMSO at a final concentration of 10 mM. NADPH regenerating solutions A and B and mouse liver microsomes (CD-1) were obtained from BD Gentest (Woburn, Mass.). Ninety-six well deep well plates were obtained from MidWest Scientific Inc (Valley Park, Mo.).
(§2) Sample preparation for microsomal stability was modified from methods of Di, L., et al., Int J Pharm. 2005 Jun. 13; 297(1-2):110-9. A set of incubation times of 0, 15, 30, 60, 120, and 240 minutes were used. Mouse liver microsomal solutions were prepared by adding 58 μL of concentrated human or mouse liver microsomes (20 mg/mL protein concentration) to 1.756 mL of 0.1 M potassium phosphate buffer (pH 7.4) and 5 μL of 0.5 M EDTA to make a 0.6381 mg/mL (protein) microsomal solution. NADPH regenerating agent contained 113 μL of NADPH A, 23 μL of NADPH B, and 315 μL of 0.1 M potassium phosphate buffer (pH 7.4). The diluted test compound solutions (2 μL) were each added directly to a 1.79 mL of liver microsomal solution. This solution was mixed and 90 μL was transferred to 6 time points plates (each in triplicate wells). For the time 0 plate, 225 μL of cold acetonitrile with internal standard ([…] warfarin) was added to each well, followed by addition of NADPH regenerating agent (22.5 μL) and no incubation. For other five time points' plate, NADPH regenerating agent (22.5 μL) was added to each well to initiate the reaction. The plates were incubated at 37° C. for the required time, followed by quenching of the reaction by adding 225 μL of cold acetonitrile with internal standard (4 μg/ml warfarin). All of the plates were sealed and mixed well at 600 rpm for 10 minutes followed by centrifugation at 4000 rpm for 20 minutes. The supernatants (120 μL) were transferred to analytical plates for analysis by LCMS. LCMS conditions were described in the materials and instrumentation section above. The metabolic stability is evaluated via the half-life from least-squares fit of the multiple time points based on first-order kinetics.

[2] = Microsomal metabolic stability; assay type: in vitro ADME, mouse
Description: as §1, §2

[3] = microsomal metabolic stability half-life, human liver microsomes
[4] = microsomal metabolic stability half-life, mouse liver microsomes

Row | Compound | Human [1, 3] | Mouse [2, 4] | Human ([1]; human, pH 7.4) | Mouse ([2]; CD-1, mouse, pH 7.4)
1 | Cc1ccc(NC(=O)N[C@@H](Cc2cccc(C)c2)C(=O)N[C@H]2COC(=O)[C@@H]3C[C@H](C)CN3C(=O)[C@H](C)NC(=O)[C@@H]3CCCCN3C(=O)[C@@H]3CCCN3C2=O)cc1 (stereo in doubt) [Compound 43, (S)—N-((2S,6S,8AS,14AS,20S,23AS)-2,6-DIMETHYL-5,8,14,19,23-PENTAOXOOCTADECAHYDRO-1H,5H,14H,19H-PYRIDO[2,1-I]DIPYRROLO[2,1-C:2′,1′-L][1]OXA[4,7,10,13]TETRAAZACYCLOHEXADECIN-20-YL)-3-(M-TOLYL)-2-(3-(P-TOLYL)UREIDO)PROPANAMIDE] | 1.36 ± 0.14 h | 3.57 ± 0.3 h | – | –
2 | C[C@@H]1C[C@H]2C(=O)O[C@@H](C)[C@H](NC(=O)[C@H](Cc3cc(F)cc(F)c3)NC(=O)Nc3ccc4c(c3)CCN4C)C(=O)N3CCC[C@H]3C(=O)N3CCOC[C@H]3C(=O)N[C@@H](C)C(=O)N2C1 [Compound 32] ({NH(1-Me-indolin-5-yl)-CO}-[Phe(3,5-F2)][aThr]P[Morpholine(3S-CO)]A[Pro(4R-Me)]; ester 2-C) | 2.66 ± .66 h | 0.95 ± .95 h | – | –
3 | C[C@@H]1C[C@H]2C(=O)OC[C@H](NC(=O)[C@H](Cc3cc(F)cc(F)c3)NC(=O)Nc3ccc(Cl)cc3F)C(=O)N3CCC[C@H]3C(=O)N3CCN(C)C[C@H]3C(=O)N[C@@H](C)C(=O)N2C1 [Compound 34] ({NH(4-Cl-2-F-phenyl)-CO}-[Phe(3,5-F2)]SP[Piperazine(2S-CO,4-Me)]A[Pro(4R-Me)]; ester 2-C) | – | – | 0.77 ± .775 h | 1.18 ± .185 h
4 | Cc1cccc(C[C@H](NC(=O)Nc2ccc(Cl)c(F)c2)C(=O)N[C@@H]2C(=O)N3CCC[C@H]3C(=O)N3CCCC[C@H]3C(=O)N[C@@H](C)C(=O)N3C[C@H](C)C[C@H]3C(=O)O[C@H]2C)c1 [Compound 35, (S)-2-(3-(4-CHLORO-3-FLUOROPHENYL)UREIDO)-3-(M-TOLYL)-N-((2R,6S,8AS,14AS,20S,21S,23AS)-2,6,21-TRIMETHYL-5,8,14,19,23-PENTAOXOOCTADECAHYDRO-1H,5H,14H,19H-PYRIDO[2,1-I]DIPYRROLO[2,1-C:2′,1′-L][1]OXA[4,7,10,13]TETRAAZACYCLOHEXADECIN-20-YL)PROPANAMIDE] ({X2-CO}-[Phe(3-Me)][aThr]P[Pip]A[Pro(4R-Me)]; ester 2-C) | – | – | 1.14 ± .145 h | 1.54 ± .545 h
5 | CCOC(=O)c1ccc(NC(=O)N[C@@H](Cc2cccc(C)c2)C(=O)N[C@@H]2C(=O)N3C[C@H](O)C[C@H]3C(=O)N3CCCC[C@H]3C(=O)N[C@@H](C)C(=O)N3C[C@H](C)C[C@H]3C(=O)O[C@H]2C)cc1 [Compound 36, ETHYL 4-(3-((S)-1-(((2R,6S,8AS,14AS,16R,20S,21S,23AS)-16-HYDROXY-2,6,21-TRIMETHYL-5,8,14,19,23-PENTAOXOOCTADECAHYDRO-1H,5H,14H,19H-PYRIDO[2,1-I]DIPYRROLO[2,1-C:2′,1′-L][1]OXA[4,7,10,13]TETRAAZACYCLOHEXADECIN-20-YL)AMINO)-1-OXO-3-(M-TOLYL)PROPAN-2-YL)UREIDO)BENZOATE] ({OEt-4Abz-CO}-[Phe(3-Me)][aThr][Hyp][Pip]A[Pro(4R-Me)]; ester 2-C) | 4.81 ± .815 h | 11.23 ± 1.23 h | – | –
6 | Cc1cccc(C[C@H](NC(=O)Nc2ccc(Cl)cc2F)C(=O)N[C@@H]2C(=O)N3CCC[C@H]3C(=O)N3CCSC[C@H]3C(=O)N[C@@H](C)C(=O)N3C[C@H](C)C[C@H]3C(=O)O[C@H]2C)c1 [Compound 38, (S)-2-(3-(4-CHLORO-2-FLUOROPHENYL)UREIDO)-3-(M-TOLYL)-N-((6AS,12S,13S,15AS,17R,21S,23AR)-13,17,21-TRIMETHYL-6,11,15,20,23-PENTAOXOOCTADECAHYDRO-6H,11H,15H-DIPYRROLO[2,1-C:2′,1′-L][1,4]THIAZINO[3,4-I][1]OXA[4,7,10,13]TETRAAZACYCLOHEXADECIN-12-YL)PROPANAMIDE] ({NH(4-Cl-2-F-phenyl)-CO}-[Phe(3-Me)][aThr]P[X1]A[Pro(4R-Me)]; ester 2-C) | – | – | 1.00 ± .003 h | 1.25 ± .253 h
7 | Cc1cccc(C[C@H](NC(=O)Nc2ccc(Cl)cc2F)C(=O)N[C@@H]2C(=O)N3CCC[C@H]3C(=O)N3CCS(=O)(=O)C[C@H]3C(=O)N[C@@H](C)C(=O)N3C[C@H](C)C[C@H]3C(=O)O[C@H]2C)c1 [Compound 40, (S)-2-(3-(4-CHLORO-2-FLUOROPHENYL)UREIDO)-3-(M-TOLYL)-N-((6AS,12S,13S,15AS,17R,21S,23AR)-13,17,21-TRIMETHYL-2,2-DIOXIDO-6,11,15,20,23-PENTAOXOOCTADECAHYDRO-6H,11H,15H-DIPYRROLO[2,1-C:2′,1′-L][1,4]THIAZINO[3,4-I][1]OXA[4,7,10,13]TETRAAZACYCLOHEXADECIN-12-YL)PROPANAMIDE] ({NH(4-Cl-2-F-phenyl)-CO}-[Phe(3-Me)][aThr]P[X6]A[Pro(4R-Me)]; ester 2-C) | – | – | 0.62 ± .623 h | 6.54 ± .543 h
8 | Cc1cccc(C[C@H](NC(=O)Nc2ccc(Cl)cc2F)C(=O)N[C@@H]2C(=O)N3C[C@H](O)C[C@H]3C(=O)N3CCSC[C@H]3C(=O)N[C@@H](C)C(=O)N3C[C@H](C)C[C@H]3C(=O)O[C@H]2C)c1 [Compound 41, (S)-2-(3-(4-CHLORO-2-FLUOROPHENYL)UREIDO)-N-((6AS,8R,12S,13S,15AS,17R,21S,23AR)-8-HYDROXY-13,17,21-TRIMETHYL-6,11,15,20,23-PENTAOXOOCTADECAHYDRO-6H,11H,15H-DIPYRROLO[2,1-C:2′,1′-L][1,4]THIAZINO[3,4-I][1]OXA[4,7,10,13]TETRAAZACYCLOHEXADECIN-12-YL)-3-(M-TOLYL)PROPANAMIDE] ({NH(4-Cl-2-F-phenyl)-CO}-[Phe(3-Me)][aThr][Hyp][X1]A[Pro(4R-Me)]; ester 2-C) | – | – | 0.41 ± .413 h | 0.11 ± .113 h
9 | Cc1ccc(NC(=O)N[C@@H](Cc2cccc(C)c2)C(=O)N[C@@H]2C(=O)N3C[C@H](O)C[C@H]3C(=O)N3CCSC[C@H]3C(=O)N[C@@H](C)C(=O)N3C[C@H](C)C[C@H]3C(=O)O[C@H]2C)cc1 [Compound 42, (S)—N-((6AS,8R,12S,13S,15AS,17R,21S,23AR)-8-HYDROXY-13,17,21-TRIMETHYL-6,11,15,20,23-PENTAOXOOCTADECAHYDRO-6H,11H,15H-DIPYRROLO[2,1-C:2′,1′-L][1,4]THIAZINO[3,4-I][1]OXA[4,7,10,13]TETRAAZACYCLOHEXADECIN-12-YL)-3-(M-TOLYL)-2-(3-(P-TOLYL)UREIDO)PROPANAMIDE] ({NH(4-Me-phenyl)-CO}-[Phe(3-Me)][aThr][Hyp][X1]A[Pro(4R-Me)]; ester 2-C) | 0.81 ± .813 h | 0.78 ± .783 h | – | –
10 | Cc1ccc(NC(=O)N[C@@H](Cc2cccc(C)c2)C(=O)N[C@@H]2C(=O)N3CCC[C@H]3C(=O)N3CCCC[C@H]3C(=O)N[C@@H](C)C(=O)N3C[C@@H](C)C[C@H]3C(=O)O[C@H]2C)cc1 [Compound 45, (S)-3-(M-TOLYL)-2-(3-(P-TOLYL)UREIDO)-N-((2S,6S,8AS,14AS,20S,21S,23AS)-2,6,21-TRIMETHYL-5,8,14,19,23-PENTAOXOOCTADECAHYDRO-1H,5H,14H,19H-PYRIDO[2,1-I]DIPYRROLO[2,1-C:2′,1′-L][1]OXA[4,7,10,13]TETRAAZACYCLOHEXADECIN-20-YL)PROPANAMIDE] ({NH(4-Me-phenyl)-CO}-[Phe(3-Me)][aThr]P[Pip]A[Pro(4S-Me)]; ester 2-C) | 2.77 ± 0.3 h | 2.35 ± 0.14 h | – | –
11 | Cc1cccc(C[C@H](NC(=O)Nc2ccc(Cl)cc2F)C(=O)N[C@@H]2C(=O)N3C[C@H](OC(=O)CCN(C)C)C[C@H]3C(=O)N3CCCC[C@H]3C(=O)N[C@@H](C)C(=O)N3C[C@H](C)C[C@H]3C(=O)O[C@H]2C)c1 [Compound 46, (2R,6S,8AS,14AS,16R,20S,21S,23AS)-20-((S)-2-(3-(4-CHLORO-2-FLUOROPHENYL)UREIDO)-3-(M-TOLYL)PROPANAMIDO)-2,6,21-TRIMETHYL-5,8,14,19,23-PENTAOXOOCTADECAHYDRO-1H,5H,14H,19H-PYRIDO[2,1-I]DIPYRROLO[2,1-C:2′,1′-L][1]OXA[4,7,10,13]TETRAAZACYCLOHEXADECIN-16-YL 3-(DIMETHYLAMINO)PROPANOATE] ({NH(4-Cl-2-F-phenyl)-CO}-[Phe(3-Me)][aThr][Hyp](Propanoyl(3-NMe2))[Pip]A[Pro(4R-Me)]; ester 2-C) | – | – | 2.09 ± 0.14 h | 0.22 ± 0.0 h
